Each structure is given as a SMILES string.

Experiment [1] deals with CHO. Kind of experiment: Cytotoxicity against human CHO cells. It counts as functional. The settings on record: Cricetulus griseus, read-out: LD50 (the source's name).
Experiment [2] deals with T1, Beta-secretase 1 (Homo sapiens, UniProt P56817). The settings on record: CHO.
In experiment [3] the target is T1, Beta-secretase 1. Kind of experiment: Inhibition of BACE1.
The target in experiment [4] is Cathepsin D (Homo sapiens, UniProt P07339). As to the kind of experiment: Inhibition of cathepsin D.
Chain of Cathepsin D (P07339 65-162 limits assumed): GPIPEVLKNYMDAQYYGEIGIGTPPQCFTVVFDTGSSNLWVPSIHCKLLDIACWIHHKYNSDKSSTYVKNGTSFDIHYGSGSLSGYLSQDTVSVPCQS
Chain of Cathepsin D (P07339 169-412 limits assumed): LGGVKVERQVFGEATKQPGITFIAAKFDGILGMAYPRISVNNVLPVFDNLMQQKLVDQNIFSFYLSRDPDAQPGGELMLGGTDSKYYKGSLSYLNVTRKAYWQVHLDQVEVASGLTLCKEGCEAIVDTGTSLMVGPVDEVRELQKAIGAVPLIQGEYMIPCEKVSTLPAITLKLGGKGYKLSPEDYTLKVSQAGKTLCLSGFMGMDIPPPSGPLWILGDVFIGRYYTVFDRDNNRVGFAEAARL
Experiment [5] can be described thus: Selectivity for BACE1 over cathepsin D.
Experiment [6] addresses T1, Beta-secretase 1. As to the kind of experiment: Inhibition of BACE1 at 2 uM.

T1 sequence (P56817 whole entry): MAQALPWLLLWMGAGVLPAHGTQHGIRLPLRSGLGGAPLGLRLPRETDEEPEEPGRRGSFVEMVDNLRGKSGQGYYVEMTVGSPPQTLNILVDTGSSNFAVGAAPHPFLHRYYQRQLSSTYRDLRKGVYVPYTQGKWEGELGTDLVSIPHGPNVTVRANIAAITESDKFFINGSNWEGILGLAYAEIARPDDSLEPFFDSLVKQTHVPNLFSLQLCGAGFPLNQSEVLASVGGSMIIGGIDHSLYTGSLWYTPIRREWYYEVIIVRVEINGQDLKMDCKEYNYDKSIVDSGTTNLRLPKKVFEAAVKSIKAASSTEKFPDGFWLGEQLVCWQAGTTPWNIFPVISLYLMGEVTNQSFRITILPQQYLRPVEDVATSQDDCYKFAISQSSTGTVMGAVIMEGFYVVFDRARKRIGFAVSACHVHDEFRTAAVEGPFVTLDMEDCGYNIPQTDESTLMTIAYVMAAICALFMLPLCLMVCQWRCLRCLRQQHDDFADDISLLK

On to `N/C(=N/C(=O)Cn1c(-c2ccccc2)ccc1C12CC3CC(CC(C3)C1)C2)NCCO`, for which the CC50 in experiment [1] was determined as 25 µM. Moreover, the ED50 in experiment [2] was found to be 3.62 µM. Besides, the concentration for half-maximal inhibition (IC50) in experiment [3] stood at 680 nM; in experiment [4] it was 24.7 µM. Also, in experiment [5], the Ratio IC50 worked out at 36.
In experiment [2], `CCCOc1ccc(-c2ccc(-c3ccccc3Cl)n2CC(=O)/N=C(/N)N[C@H]2CC[C@H](O)CC2)cc1` yielded an ED50 of 1.28 µM. It took 125 nM to reach half-maximal inhibition in experiment [3] (IC50). Further, the Ratio IC50 in experiment [5] came to 110.
With `N/C(=N/C(=O)Cn1c(-c2ccccc2)ccc1C12CC3CC(CC(C3)C1)C2)N[C@H]1CC[C@H](O)CC1`, the CC50 in experiment [1] worked out at 14 µM. Also, the ED50 in experiment [2] came out at 1.44 µM. Besides, half-maximal inhibition in experiment [3] (IC50) was put at 283 nM.
With `CCCOc1ccc(-c2ccc(-c3ccccc3Cl)n2CC(=O)/N=C(/N)NCC(O)CO)cc1` (centres undefined), the ED50 in experiment [2] was 5.27 µM. In addition, the IC50 in experiment [3] came to 124 nM. Moreover, in experiment [5], the Ratio IC50 worked out at 81.
Turning to `N/C(=N\C(=O)Cn1c(-c2ccccc2)ccc1-c1ccccc1)NCc1ccc(F)c(F)c1F`, in experiment [6], the inhibition was 43%.
`CCCOc1ccc(-c2ccc(-c3ccccc3Cl)n2CC(=O)/N=C(/N)NCC(C)(C)CO)cc1` had an ED50 in experiment [2] of 5.27 µM. For the same compound, in experiment [3], the half-inhibitory concentration (IC50) stood at 203 nM. The Ratio IC50 in experiment [5] is 15.
Turning to `CCCOc1ccc(-c2ccc(-c3ccccc3Cl)n2CC(=O)/N=C(/N)NCc2ccc(F)c(F)c2F)cc1`, the ED50 in experiment [2] stood at 5.27 µM. In addition, the Ratio IC50 in experiment [5] turned out to be 0.5.
Take `CCCOc1ccc(-c2ccc(-c3ccccc3Cl)n2CC(=O)/N=C(/N)NCCCSC)cc1`: the ED50 in experiment [2] was determined as 1.23 µM. This compound also registered an IC50 in experiment [3] of 321 nM. Besides, the Ratio IC50 in experiment [5] is 3.9.
Taken in the same sequence, the figures for `CCCOc1ccc(-c2ccc(-c3ccccc3Cl)n2CC(=O)/N=C(/N)NCCCn2ccnc2)cc1` were 3.1 µM, 241 nM and 30.
As to `N=C(NCCCn1ccnc1)NC(=O)Cn1c(-c2ccccc2)ccc1C12CC3CC(CC(C3)C1)C2`, the IC50 is 1710 nM in experiment [3] and greater than 25 µM in experiment [4].
As to `Cc1csc(CNC(=N)NC(=O)Cn2c(-c3ccccc3)ccc2C23CC4CC(CC(C4)C2)C3)n1`, inhibition in experiment [4] was half-maximal at 0.144 µM (IC50).
For the compound `N=C(NCC(O)CO)NC(=O)Cn1c(-c2ccccc2)ccc1C12CC3CC(CC(C3)C1)C2` (centres undefined), the IC50 in experiment [3] came to 536 nM; in experiment [4] it was 73.5 µM.
In experiment [2], `CCCOc1ccc(-c2ccc(-c3ccccc3Cl)n2CC(=O)/N=C(/N)NCc2ccco2)cc1` registered an ED50 of 9.1 µM. For the same compound, the Ratio IC50 in experiment [5] worked out at 2.5.
`CCCOc1ccc(-c2ccc(-c3ccccc3Cl)n2CC(=O)/N=C(/N)NCc2ccc(O)c(OC)c2)cc1` came in with an ED50 in experiment [2] of 5.45 µM. Besides, inhibition in experiment [3] was half-maximal at 651 nM (IC50). Further, the Ratio IC50 in experiment [5] stood at 1.
With `C[C@H](O)CNC(=N)NC(=O)Cn1c(-c2ccccc2)ccc1C12CC3CC(CC(C3)C1)C2`, the IC50 turned out to be 942 nM in experiment [3] and 54.1 µM in experiment [4].
Take `N#CCCCNC(=N)NC(=O)Cn1c(-c2ccccc2)ccc1C12CC3CC(CC(C3)C1)C2`: the values for the IC50 in experiment [3] and in experiment [4] were 255 nM and 4.25 µM, respectively.
With `CCCOc1ccc(-c2ccc(-c3ccccc3Cl)n2CC(=O)/N=C(/N)NCCC2OCCO2)cc1`, the ED50 in experiment [2] was 1.34 µM. The IC50 in experiment [3] worked out at 269 nM. In addition, the Ratio IC50 in experiment [5] stood at 13.
As for `Cc1nnc(CN/C(N)=N\C(=O)Cn2c(-c3ccccc3)ccc2C23CC4CC(CC(C4)C2)C3)o1`, the CC50 in experiment [1] was found to be 22 µM. The compound also showed an ED50 in experiment [2] of 9.48 µM. In experiment [4], this compound returned an IC50 of 3.01 µM.
On to `C[C@H](O)CN/C(N)=N\C(=O)Cn1c(-c2ccccc2)ccc1C12CC3CC(CC(C3)C1)C2`, for which the CC50 in experiment [1] turned out to be 100 µM. Moreover, in experiment [2], the ED50 stood at 17.8 µM. Also, the Ratio IC50 in experiment [5] came to 57.
As for `N/C(=N/C(=O)Cn1c(-c2ccccc2)ccc1C12CC3CC(CC(C3)C1)C2)NCC(O)CO` (centres undefined), the CC50 in experiment [1] stood at 88 µM. The same compound yielded an ED50 in experiment [2] of 21.1 µM. The Ratio IC50 in experiment [5] worked out at 137.
On to `N/C(=N/C(=O)Cn1c(-c2ccccc2)ccc1C12CC3CC(CC(C3)C1)C2)NCCCCO`, for which, in experiment [1], the CC50 is 31 µM. Moreover, the ED50 in experiment [2] stood at 4.15 µM. Moreover, in experiment [5], the Ratio IC50 stood at 25.
Compound `CCCOc1ccc(-c2ccc(-c3ccccc3Cl)n2CC(=O)/N=C(/N)NCCCO)cc1` showed an ED50 in experiment [2] of 1.18 µM. In addition, the Ratio IC50 in experiment [5] is 85.
Consider `NC(N)=NC(=O)Cn1c(-c2ccccc2)ccc1C12CC3CC(CC(C3)C1)C2`, for which the CC50 in experiment [1] was greater than 25 µM. Besides, the ED50 in experiment [2] was determined as 8.9 µM. The same compound displayed an IC50 in experiment [4] of 25 µM. Besides, the Ratio IC50 in experiment [5] amounted to 69.
As for `CCCOc1ccc(-c2ccc(-c3ccccc3Cl)n2CC(=O)/N=C(/N)NCCCC(=O)O)cc1`, the IC50 in experiment [3] amounted to 130 nM. Also, the Ratio IC50 in experiment [5] stood at 45.
With `N/C(=N/C(=O)Cn1c(-c2ccccc2)ccc1C12CC3CC(CC(C3)C1)C2)NCCCO`, the CC50 in experiment [1] amounted to 35 µM. The compound further registered an ED50 in experiment [2] of 1.84 µM. In addition, in experiment [4], the midpoint of inhibition, the IC50, lay at 19.9 µM. In addition, the Ratio IC50 in experiment [5] stood at 83.
Regarding `CCCOc1ccc(-c2ccc(-c3ccccc3Cl)n2CC(=O)NC(=N)NCCCO)cc1`, half-maximal inhibition in experiment [3] (IC50) required 121 nM.
As to `CCCOc1ccc(-c2ccc(-c3ccccc3Cl)n2CC(=O)/N=C(/N)NCCC(N)=O)cc1`, the Ratio IC50 in experiment [5] is 55.
Compound `N=C(NCCc1ccsc1)NC(=O)Cn1c(-c2ccccc2)ccc1C12CC3CC(CC(C3)C1)C2` had a half-inhibitory concentration (IC50) in experiment [4] of 0.599 µM.
On to `N=C(NC(=O)Cn1c(-c2ccccc2)ccc1C12CC3CC(CC(C3)C1)C2)NC1CCCCC1`, for which the IC50 in experiment [3] was determined as 7200 nM; in experiment [4], 54.2 µM.
As for `N#CCCN/C(N)=N\C(=O)Cn1c(-c2ccccc2)ccc1C12CC3CC(CC(C3)C1)C2`, the CC50 in experiment [1] came to 16 µM. In addition, in experiment [2], the ED50 worked out at 3.44 µM. Besides, the IC50 came out at 310 nM in experiment [3] and 12.2 µM in experiment [4]. In addition, the Ratio IC50 in experiment [5] is 39.
As to `N/C(=N/C(=O)Cn1c(-c2ccccc2)ccc1C12CC3CC(CC(C3)C1)C2)NCCCn1ccnc1`, the CC50 in experiment [1] is 45 µM. This compound also came in with an ED50 in experiment [2] of 9.16 µM. Moreover, the Ratio IC50 in experiment [5] is greater than 15.
As for `CCCOc1ccc(-c2ccc(-c3ccccc3Cl)n2CC(=O)NC(=N)NCCC(N)=O)cc1`, the midpoint of inhibition in experiment [3], the IC50, lay at 172 nM.
Consider `Cc1csc(CN/C(N)=N\C(=O)Cn2c(-c3ccccc3)ccc2C23CC4CC(CC(C4)C2)C3)n1`, for which, in experiment [1], the CC50 amounted to 8 µM. This compound gave an ED50 in experiment [2] of 3.97 µM.
For the compound `CCCOc1ccc(-c2ccc(-c3ccccc3Cl)n2CC(=O)NC(=N)NCCC(=O)O)cc1`, in experiment [3], the IC50 was determined as 278 nM.
For the compound `N/C(=N/C(=O)Cn1c(-c2ccccc2)ccc1C12CC3CC(CC(C3)C1)C2)NCCc1ccsc1`, in experiment [1], the CC50 worked out at 2 µM. In experiment [2], this compound registered an ED50 of 1.69 µM.
For `CCCOc1ccc(-c2ccc(-c3ccccc3Cl)n2CC(=O)/N=C(/N)NCCCC(N)=O)cc1`, the ED50 in experiment [2] was found to be 4.14 µM. This compound also yielded a half-maximal inhibitory concentration (IC50) in experiment [3] of 137 nM. Besides, the Ratio IC50 in experiment [5] was 70.
Turning to `CCCOc1ccc(-c2ccc(-c3ccccc3Cl)n2CC(=O)/N=C(/N)NCCC(=O)O)cc1`, the Ratio IC50 in experiment [5] is greater than 45.
In the case of `CCCOc1ccc(-c2ccc(-c3ccccc3Cl)n2CC(=O)NC(=N)NCc2ccco2)cc1`, the IC50 in experiment [3] worked out at 558 nM.
As to `N=C(NCc1cccc(N)c1)NC(=O)Cn1c(-c2ccccc2)ccc1C12CC3CC(CC(C3)C1)C2`, the half-inhibitory concentration (IC50) in experiment [3] turned out to be 744 nM; in experiment [4] it was 1.38 µM.
With `CCCOc1ccc(-c2ccc(-c3ccccc3Cl)n2CC(=O)/N=C(/N)N[C@H]2CC[C@H](C(=O)O)CC2)cc1`, the ED50 in experiment [2] was found to be 10.4 µM. In addition, the IC50 in experiment [3] turned out to be 78 nM. For the same compound, the Ratio IC50 in experiment [5] stood at 7.3.
As for `CCCOc1ccc(-c2ccc(-c3ccccc3Cl)n2CC(=O)NC(=N)NCc2ccc(F)c(F)c2F)cc1`, in experiment [3], the IC50 is 203 nM.
Regarding `C[C@@H](O)CN/C(N)=N\C(=O)Cn1c(-c2ccccc2)ccc1C12CC3CC(CC(C3)C1)C2`, the CC50 in experiment [1] was determined as 79 µM. In addition, the ED50 in experiment [2] is 9.51 µM. For the same compound, the figures for the IC50 in experiment [3] and in experiment [4] were 437 nM and 12.5 µM, respectively. For the same compound, in experiment [5], the Ratio IC50 came to 28.
For `N/C(=N\C(=O)Cn1c(-c2ccccc2)ccc1C12CC3CC(CC(C3)C1)C2)NCCCCO`, the IC50 in experiment [3] amounted to 255 nM; in experiment [4] it was 6.45 µM.
In the case of `N#CCCCN/C(N)=N\C(=O)Cn1c(-c2ccccc2)ccc1C12CC3CC(CC(C3)C1)C2`, in experiment [1], the CC50 was 59 µM. The ED50 in experiment [2] came to 4.4 µM. Also, the Ratio IC50 in experiment [5] was found to be 17.
For `N/C(=N/C(=O)Cn1c(-c2ccccc2)ccc1C12CC3CC(CC(C3)C1)C2)NC1CCCCC1`, in that order: 50 µM, 18.7 µM and 7.5.
Taken in the same sequence, the figures for `N/C(=N/C(=O)Cn1c(-c2ccccc2)ccc1C12CC3CC(CC(C3)C1)C2)NCc1cccc(N)c1` were 8 µM, 4.81 µM and 1.9.
With `N/C(=N/C(=O)Cn1c(-c2ccccc2)ccc1C12CC3CC(CC(C3)C1)C2)NCCc1cccs1`, in experiment [1], the CC50 came out at 3 µM. The compound also gave an ED50 in experiment [2] of 2 µM. The compound further showed a half-inhibitory concentration (IC50) in experiment [4] of 0.476 µM.
`CCCOc1ccc(-c2ccc(-c3ccccc3Cl)n2CC(=O)/N=C(/N)NCc2cccs2)cc1`: the ED50 in experiment [2] came to 10.7 µM. The half-maximal inhibitory concentration (IC50) in experiment [3] was found to be 752 nM. In experiment [5], the Ratio IC50 was 0.7.

By IC50 is commonly meant the concentration that gives 50% inhibition. Lower therefore signals greater potency in that assay. As usually defined, the inhibition is the share of the control response that was lost under treatment. A higher inhibition goes with strong suppression.

(Values after ChEMBL document CHEMBL1142260, “Acylguanidine inhibitors of beta-secretase: optimization of the pyrrole ring substituents extending into the S1' substrate binding pocket” (Bioorg Med Chem Lett, 2008).)
